Results reported in patent US9234186B2, “Star-worm luciferase” (OLYMPUS CORPORATION, priority 2011, dated 2016).

Target: GL3 luciferase derived from P. pyralis (Photinus pyralis, UniProt P08659, K549A/L550V/N119G/N50D/S548I)
Type: biochemical
Conditions: read-out: Km for ATP; 0.1 M Tris-HCl pH 8.0; enzyme solution with 1 mM D-luciferin, 8 mM MgSO4

Sequence of GL3 luciferase derived from P. pyralis (P08659 whole entry N50D/N119G/S548I/K549A/L550V): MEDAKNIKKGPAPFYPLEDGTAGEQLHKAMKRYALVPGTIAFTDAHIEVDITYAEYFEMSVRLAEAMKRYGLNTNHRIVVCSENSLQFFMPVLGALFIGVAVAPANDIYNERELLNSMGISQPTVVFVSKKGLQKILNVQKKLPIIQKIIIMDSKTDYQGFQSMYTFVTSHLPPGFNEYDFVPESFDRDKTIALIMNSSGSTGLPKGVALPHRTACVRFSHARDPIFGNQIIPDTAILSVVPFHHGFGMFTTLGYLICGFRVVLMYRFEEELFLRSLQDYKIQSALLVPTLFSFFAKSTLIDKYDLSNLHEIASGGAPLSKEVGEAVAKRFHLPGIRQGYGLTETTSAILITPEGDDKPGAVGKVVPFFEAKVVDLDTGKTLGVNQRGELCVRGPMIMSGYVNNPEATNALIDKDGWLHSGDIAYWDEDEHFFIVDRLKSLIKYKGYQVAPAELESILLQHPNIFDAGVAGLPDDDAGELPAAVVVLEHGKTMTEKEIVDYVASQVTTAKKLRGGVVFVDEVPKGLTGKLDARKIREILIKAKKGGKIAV

## Nc1ncnc2c1ncn2[C@@H]1O[C@H](COP(=O)(O)OP(=O)(O)OP(=O)(O)O)[C@@H](O)[C@H]1O [ATP, Adenosine triphosphate]
  Km: 64.3 µM
